Results on 40 compounds are retold here after patent US8183272B2, “Indanyl compounds” (Daiichi Sankyo Company, Limited, priority 2008, dated 2012).

For orientation: IC50 means the point on the concentration scale where inhibition reaches its midpoint.

The target in the test is T1, human calcium-sensing receptor (CaSR) (Homo sapiens, UniProt P41180).
T1 construct: expressed in transfected cells; host or cells: CHO cells (CHO/hCaSR)
T1 sequence (P41180 20-1078): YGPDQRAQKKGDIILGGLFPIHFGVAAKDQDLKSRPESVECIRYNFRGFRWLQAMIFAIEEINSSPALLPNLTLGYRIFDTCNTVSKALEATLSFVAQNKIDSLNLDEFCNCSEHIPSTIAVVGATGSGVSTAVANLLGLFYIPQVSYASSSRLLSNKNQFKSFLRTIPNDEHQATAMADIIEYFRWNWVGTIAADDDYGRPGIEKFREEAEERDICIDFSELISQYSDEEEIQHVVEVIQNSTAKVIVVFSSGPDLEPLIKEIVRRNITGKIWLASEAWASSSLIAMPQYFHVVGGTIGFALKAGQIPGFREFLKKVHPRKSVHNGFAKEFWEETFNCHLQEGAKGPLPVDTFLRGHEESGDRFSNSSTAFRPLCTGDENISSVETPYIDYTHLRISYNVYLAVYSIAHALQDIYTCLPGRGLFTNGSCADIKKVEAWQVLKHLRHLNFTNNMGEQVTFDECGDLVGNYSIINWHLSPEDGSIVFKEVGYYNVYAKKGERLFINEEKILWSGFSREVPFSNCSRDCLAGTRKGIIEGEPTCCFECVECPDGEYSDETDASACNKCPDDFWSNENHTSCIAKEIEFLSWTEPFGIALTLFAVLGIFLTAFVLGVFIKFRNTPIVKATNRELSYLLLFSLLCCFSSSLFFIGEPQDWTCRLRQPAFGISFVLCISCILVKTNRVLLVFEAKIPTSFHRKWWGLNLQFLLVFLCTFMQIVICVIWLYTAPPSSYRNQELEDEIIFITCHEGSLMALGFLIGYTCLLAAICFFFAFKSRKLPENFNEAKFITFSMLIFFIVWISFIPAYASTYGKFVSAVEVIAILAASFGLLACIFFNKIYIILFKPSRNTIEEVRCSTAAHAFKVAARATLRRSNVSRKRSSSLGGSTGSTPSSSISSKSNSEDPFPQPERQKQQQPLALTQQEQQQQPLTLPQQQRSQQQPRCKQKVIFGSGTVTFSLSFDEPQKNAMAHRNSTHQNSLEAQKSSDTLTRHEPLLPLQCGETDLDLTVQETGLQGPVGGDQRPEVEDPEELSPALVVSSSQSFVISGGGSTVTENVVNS
Briefly: Inhibitory activity on calcium-sensing receptor (CaSR) using intracellular calcium increase as an indicator (FLIPR, CHO/hCaSR). It counts as cell-based. Particulars: CHO/hCaSR cells; intracellular Ca increase induced by CaCl2; test compound 1.05 to 10,000 nM. On the procedure:
Evaluation of inhibitory activity on calcium-sensing receptor (CaSR) using intracellular calcium increase as an indicator
The preparation which is prepared by adding CHO/hCaSR to F12 medium (manufactured by Invitrogen) containing 10% fetal bovine serum to have 2×10^5 cells/mL was applied to a 384-well in an amount of 50 μL/well, and then incubated overnight in a CO2 incubator. The culture supernatant was completely removed, the assay buffer (20 mM HEPES, HBSS (Ca and Mg free) containing 2.5 mM probenecid, pH 7.4) containing Calcium 3 (manufactured by Molecular Devices), i.e., a fluorescent intracellular calcium indicator, was added thereto in an amount of 25 μL/well, and the mixture was maintained for 1 hour in a CO2 incubator. Meanwhile, Calcium 3 was prepared according to the protocol enclosed in FLIPR Calcium 3 Assay Kit (manufactured by Molecular Devices). After maintaining it for 1 hour, a solution in which the test compound is prepared to have 2.1 to 20,000 nM (final concentration of 1.05 to 10,000 nM) by an assay buffer was added thereto in an amount of 25 μL/well, and maintained for 15 minutes in a CO2 incubator. Then, the CaCl2 solution prepared to have […] by using the assay buffer was added in an amount of 25 μL/well, and the resulting intracellular Ca increase (i.e., fluorescence intensity) was measured over time using a fluorescence imaging plate reader (FLIPR, manufactured by Molecular Devices). From the data obtained, the difference between the fluorescence intensity before the addition of CaCl2 solution and the maximum fluorescence intensity after the addition of CaCl2 solution was calculated, and the 50% inhibition concentration (IC50) of the test compound was obtained.
In the case of `C[C@@H](OC[C@H](O)CNC(C)(C)CC1Cc2ccccc2C1)c1ccccc1CCCOCC(=O)O` [Example 85, (3-{2-[(1R)-1-{[(2R)-3-{[1-(2,3-Dihydro-1H-inden-2-yl)-2-methylpropan-2-yl]amino}-2-hydroxypropyl]oxy}ethyl]phenyl}propoxy)acetic acid], the IC50 is at most 2.27 µM.
The value for `CCC[C@@H](OC[C@H](O)CNC(C)(C)CC1Cc2ccccc2C1)c1cc(Cl)ccc1CCC(=O)O` [Example 76] was at most 2.19 µM; that for `CC(C)(CC1Cc2ccccc2C1)NC[C@@H](O)CO[C@@H](c1ccccc1CCC(=O)O)C1CC1` [Example 29] was at most 2.36 µM.
Regarding `C[C@@H](OC[C@H](O)CNC(C)(C)CC1Cc2ccccc2C1)c1cc(F)c(F)cc1CCC(=O)O` [Example 26], the IC50 is at most 2.31 µM.
The value for `CC[C@@H](OC[C@H](O)CNC(C)(C)CC1Cc2ccccc2C1)c1ccc(Cl)cc1CCC(=O)O` [Example 74] was at most 2.25 µM; that for `C[C@@H](OC[C@H](O)CNC(C)(C)CC1Cc2ccccc2C1)c1cc(F)ccc1CCCCC(=O)O` [Example 45] was at most 2.27 µM; that for `CC(C)Oc1cccc([C@@H](C)OC[C@H](O)CNC(C)(C)CC2Cc3ccccc3C2)c1CCCCC(=O)O` [Example 65] was at most 2.09 µM.
On to `CC(OC[C@H](O)CNC(C)(C)CC1Cc2ccccc2C1)c1c(CCC(=O)O)ccc(F)c1F` (stereo partly shown) [Example 36], for which the IC50 was at most 2.31 µM.
As for `CC[C@@H](OC[C@H](O)CNC(C)(C)CC1Cc2ccccc2C1)c1cc(F)cc(F)c1CCC(=O)O` [Example 80], the figure is at most 2.25 µM; as for `C[C@@H](OC[C@H](O)CNC(C)(C)CC1Cc2ccccc2C1)c1cc(F)c(Cl)cc1CCC(=O)O` [Example 34], at most 2.24 µM.
As for `C[C@@H](OC[C@H](O)CNC(C)(C)CC1Cc2ccccc2C1)c1cccc(OC(F)F)c1CCC(=O)O` [Example 66], the figure is at most 2.18 µM; as for `CC[C@@H](OC[C@H](O)CNC(C)(C)CC1Cc2ccccc2C1)c1cccc(OC)c1CCC(=O)O` [Example 41], at most 2.27 µM; as for `Cc1cccc(CCC(=O)O)c1C(C)OC[C@H](O)CNC(C)(C)CC1Cc2ccccc2C1` (stereo partly shown) [Example 32], at most 2.42 µM.
On to `C[C@@H](OC[C@H](O)CNC(C)(C)CC1Cc2ccccc2C1)c1cccc(Cl)c1CCC(=O)O` [Example 71], for which the concentration for half-maximal inhibition (IC50) is at most 2.32 µM.
As for `CC[C@@H](OC[C@H](O)CNC(C)(C)CC1Cc2ccccc2C1)c1cccc(Cl)c1CCC(=O)O` [Example 75], the figure is at most 2.25 µM.
The value for `C[C@@H](OC[C@H](O)CNC(C)(C)CC1Cc2ccccc2C1)c1cccc(C(F)(F)F)c1CCC(=O)O` [Example 10, 3-{2-[(1R)-1-{[(2R)-3-{[1-(2,3-Dihydro-1H-inden-2-yl)-2-methylpropan-2-yl]amino}-2-hydroxypropyl]oxy}ethyl]-6-(trifluoromethyl)phenyl}propanoic acid] was at most 2.17 µM.
As for `C[C@@H](OC[C@H](O)CNC(C)(C)CC1Cc2ccccc2C1)c1ccc(Cl)cc1CCC(=O)O` [Example 69], the figure is at most 2.32 µM.
In the case of `CC[C@@H](OC[C@H](O)CNC(C)(C)CC1Cc2ccccc2C1)c1cc(Cl)ccc1CCC(=O)O` [Example 73], the concentration for half-maximal inhibition (IC50) was at most 2.25 µM.
As for `CCOc1cccc([C@@H](C)OC[C@H](O)CNC(C)(C)CC2Cc3ccccc3C2)c1CCC(=O)O` [Example 62], the figure is at most 2.27 µM.
Regarding `CC(C)Oc1cccc([C@@H](C)OC[C@H](O)CNC(C)(C)CC2Cc3ccccc3C2)c1CCC(=O)O` [Example 64], the IC50 is at most 2.21 µM.
The value for `C[C@@H](OC[C@H](O)CNC(C)(C)CC1Cc2ccccc2C1)c1cc(F)c(F)cc1CCCCC(=O)O` [Example 30] was at most 2.18 µM; that for `CCOc1cccc([C@@H](C)OC[C@H](O)CNC(C)(C)CC2Cc3ccccc3C2)c1CCCCC(=O)O` [Example 63] was at most 2.15 µM.
As for `CC[C@@H](OC[C@H](O)CNC(C)(C)CC1Cc2ccccc2C1)c1cccc(F)c1CCC(=O)O` [Example 39], the figure is at most 2.33 µM; as for `Cc1ccc([C@@H](C)OC[C@H](O)CNC(C)(C)CC2Cc3ccccc3C2)c(CCCCC(=O)O)c1` [Example 43], at most 2.28 µM.
As for `COc1cccc([C@@H](C)OC[C@H](O)CNC(C)(C)CC2Cc3ccccc3C2)c1CCCCC(=O)O` [Example 37], the figure is at most 2.21 µM; as for `C[C@@H](OC[C@H](O)CNC(C)(C)CC1Cc2ccccc2C1)c1ccc(C(F)(F)F)cc1CCC(=O)O` [Example 11, 3-{2-[(1R)-1-{[(2R)-3-{[1-(2,3-Dihydro-1H-inden-2-yl)-2-methylpropan-2-yl]amino}-2-hydroxypropyl]oxy}ethyl]-5-(trifluoromethyl)phenyl}propanoic acid], at most 2.17 µM; as for `COc1cccc([C@@H](C)OC[C@H](O)CNC(C)(C)CC2Cc3ccccc3C2)c1CCC(=O)O` [Example 17], at most 2.34 µM.
Consider `C[C@@H](OC[C@H](O)CNC(C)(C)CC1Cc2ccccc2C1)c1ccccc1CCOCC(=O)O` [Example 83, (2-{2-[(1R)-1-{[(2R)-3-{[1-(2,3-Dihydro-1H-inden-2-yl)-2-methylpropan-2-yl]amino}-2-hydroxypropyl]oxy}ethyl]phenyl}ethoxy)acetic acid], for which the IC50 is at most 2.34 µM.
The value for `C[C@@H](OC[C@H](O)CNC(C)(C)CC1Cc2ccccc2C1)c1ccccc1CCCCC(=O)O` [Example 13, 5-{2-[(1R)-1-{[(2R)-3-{[1-(2,3-Dihydro-1H-inden-2-yl)-2-methylpropan-2-yl]amino}-2-hydroxypropyl]oxy}ethyl]phenyl}pentanoic acid] was at most 2.35 µM; that for `C[C@@H](OC[C@H](O)CNC(C)(C)CC1Cc2ccccc2C1)c1cc(C(F)(F)F)ccc1CCCCC(=O)O` [Example 50] was at most 2.05 µM.
For the compound `C[C@@H](OC[C@H](O)CNC(C)(C)CC1Cc2ccccc2C1)c1ccccc1CCCC(=O)O` [Example 2, 4-{2-[(1R)-1-{[(2R)-3-{[1-(2,3-Dihydro-1H-inden-2-yl)-2-methylpropan-2-yl]amino}-2-hydroxypropyl]oxy}ethyl]phenyl}butanoic acid], the IC50 is at most 2.42 µM.
As for `Cc1cc(CCC(=O)O)c([C@@H](C)OC[C@H](O)CNC(C)(C)CC2Cc3ccccc3C2)cc1F` [Example 22], the figure is at most 2.33 µM; as for `C[C@@H](OC[C@H](O)CNC(C)(C)CC1Cc2ccccc2C1)c1cc(C(F)(F)F)ccc1CCC(=O)O` [Example 49], at most 2.17 µM; as for `Cc1cccc([C@@H](C)OC[C@H](O)CNC(C)(C)CC2Cc3ccccc3C2)c1CCCCC(=O)O` [Example 47], at most 2.28 µM.
The value for `CCC[C@@H](OC[C@H](O)CNC(C)(C)CC1Cc2ccccc2C1)c1cccc(OC)c1CCC(=O)O` [Example 55] was at most 2.21 µM; that for `C[C@@H](OC[C@H](O)CNC(C)(C)CC1Cc2ccccc2C1)c1ccc(C#N)cc1CCC(=O)O` [Example 25] was at most 2.37 µM; that for `CCOc1ccc(CCCCC(=O)O)c([C@@H](C)OC[C@H](O)CNC(C)(C)CC2Cc3ccccc3C2)c1` [Example 58] was at most 2.15 µM.
As for `CC[C@@H](OC[C@H](O)CNC(C)(C)CC1Cc2ccccc2C1)c1cc(F)c(F)cc1CCC(=O)O` [Example 79], the figure is at most 2.25 µM; as for `C[C@@H](OC[C@H](O)CNC(C)(C)CC1Cc2ccccc2C1)c1cc(Cl)ccc1CCC(=O)O` [Example 70], at most 2.32 µM; as for `COc1cc(F)cc([C@@H](C)OC[C@H](O)CNC(C)(C)CC2Cc3ccccc3C2)c1CCC(=O)O` [Example 35], at most 2.26 µM.
